The record followed here is patent US11020398B2, “Amino-pyrrolopyrimidinone compounds and methods of use thereof” (ArQule, Inc., priority 2016, dated 2021).

The structures appear in SMILES notation. pIC50: −log10 of the molar value.

In the assay the target is phosphorylated form of full length BTK (active BTK) (Homo sapiens (Human), UniProt Q06187). Kind of assay: Mobility shift assay (MSA, Caliper LabChip), active BTK assay. The format is biochemical. As to conditions: Assay type B (MSA using active BTK).
Sequence of phosphorylated form of full length BTK (active BTK) (Q06187 whole entry): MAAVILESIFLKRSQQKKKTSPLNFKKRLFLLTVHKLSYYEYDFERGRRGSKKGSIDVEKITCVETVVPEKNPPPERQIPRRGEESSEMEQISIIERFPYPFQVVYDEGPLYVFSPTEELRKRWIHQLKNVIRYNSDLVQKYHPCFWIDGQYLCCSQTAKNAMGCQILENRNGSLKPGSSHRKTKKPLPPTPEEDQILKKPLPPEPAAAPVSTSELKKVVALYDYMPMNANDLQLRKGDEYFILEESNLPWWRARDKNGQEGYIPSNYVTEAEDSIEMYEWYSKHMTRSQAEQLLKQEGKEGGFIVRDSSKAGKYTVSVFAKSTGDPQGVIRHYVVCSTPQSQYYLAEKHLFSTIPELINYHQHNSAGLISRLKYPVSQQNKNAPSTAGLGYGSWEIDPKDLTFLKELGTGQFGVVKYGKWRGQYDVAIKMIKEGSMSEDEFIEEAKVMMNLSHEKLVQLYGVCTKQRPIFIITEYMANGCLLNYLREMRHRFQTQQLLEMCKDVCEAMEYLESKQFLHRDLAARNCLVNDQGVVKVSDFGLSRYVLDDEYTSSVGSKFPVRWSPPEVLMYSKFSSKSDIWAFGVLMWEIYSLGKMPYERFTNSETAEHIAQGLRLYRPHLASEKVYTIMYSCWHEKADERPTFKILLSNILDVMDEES

Regarding `Cc1cc(Oc2ccccc2)ccc1C(=O)c1c[nH]c2ncnc(N[C@@H]3CC[C@@H]([C@@H](C)O)OC3)c12` [Compound I-197, (4-(((3R,6S)-6-((R)-1-hydroxyethyl)tetrahydro-2H-pyran-3-yl)amino)-7H-pyrrolo[2,3-d]pyrimidin-5-yl)(2-methyl-4-phenoxyphenyl)methanone], the negative logarithm of the IC50 (pIC50) (in general, the IC50 on a negative log10 scale, so that one unit is a factor of ten) is 8.80.

Regarding `CC(=O)N[C@@H](C)[C@@H]1CC[C@@H](Nc2ncnc3[nH]cc(C(=O)c4ccc(Oc5ccccc5)cc4)c23)CO1` [Compound I-198, N-((S)-1-((2S,5R)-5-((5-(4-phenoxybenzoyl)-7H-pyrrolo[2,3-d]pyrimidin-4-yl)amino)tetrahydro-2H-pyran-2-yl)ethyl)acetamide], the pIC50 is 8.59.

Regarding `CC(=O)N[C@H]1C[C@H](Nc2ncnc3[nH]cc(C(=O)c4ccc(Oc5ccccc5)cc4)c23)C1` [Compound I-199, N-(trans-3-((5-(4-phenoxybenzoyl)-7H-pyrrolo[2,3-d]pyrimidin-4-yl)amino)cyclobutyl)acetamide], the negative logarithm of the IC50 (pIC50) was 8.17.

For `C[C@]1(O)CC[C@@H](Nc2ncnc3[nH]cc(C(=O)c4ccc(Oc5ccccc5)cc4Cl)c23)CC1` [Compound I-200, (2-chloro-4-phenoxyphenyl)(4-((cis-4-hydroxy-4-methylcyclohexyl)amino)-7H-pyrrolo[2,3-d]pyrimidin-5-yl)methanone], the negative-log IC50 (pIC50) was 8.85.

With `C[C@]1(O)CC[C@H](Nc2ncnc3[nH]cc(C(=O)c4ccc(Oc5ccccc5)cc4Cl)c23)CC1` [Compound I-201, (2-chloro-4-phenoxyphenyl)(4-((trans-4-hydroxy-4-methylcyclohexyl)amino)-7H-pyrrolo[2,3-d]pyrimidin-5-yl)methanone], the pIC50 is 8.82.

For `C[C@H](O)C(=O)N[C@H]1CC[C@@H](Nc2ncnc3[nH]cc(C(=O)c4ccc(Oc5ccccc5)cc4)c23)CC1` [Compound I-202, (S)-2-hydroxy-N-(cis-4-((5-(4-phenoxybenzoyl)-7H-pyrrolo[2,3-d]pyrimidin-4-yl)amino)cyclohexyl)propanamide], the pIC50 is 9.00.

As for `CC(C)(O)C(=O)N[C@H]1CC[C@@H](Nc2ncnc3[nH]cc(C(=O)c4ccc(Oc5ccccc5)cc4)c23)CC1` [Compound I-203, 2-hydroxy-2-methyl-N-(cis-4-((5-(4-phenoxybenzoyl)-7H-pyrrolo[2,3-d]pyrimidin-4-yl)amino)cyclohexyl)propanamide], the pIC50 is 8.85.

As to `CC(=O)N[C@@H](C)[C@@H]1CC[C@@H](Nc2ncnc3[nH]cc(C(=O)c4ccc(Oc5ccccc5)cc4C)c23)CO1` [Compound I-204, N-((S)-1-((2S,5R)-5-((5-(2-methyl-4-phenoxybenzoyl)-7H-pyrrolo[2,3-d]pyrimidin-4-yl)amino)tetrahydro-2H-pyran-2-yl)ethyl)acetamide], the pIC50 was 8.96.

Take `CC(=O)NC[C@@H]1CC[C@@H](Nc2ncnc3[nH]cc(C(=O)c4ccc(Oc5ccccc5)cc4)c23)CO1` [Compound I-205, N-(((2S,5R)-5-((5-(4-phenoxybenzoyl)-7H-pyrrolo[2,3-d]pyrimidin-4-yl)amino)tetrahydro-2H-pyran-2-yl)methyl)acetamide]: the negative-log IC50 (pIC50) is 8.80.

In the case of `C[C@@H](O)C(=O)N[C@H]1CC[C@@H](Nc2ncnc3[nH]cc(C(=O)c4ccc(Oc5ccccc5)cc4)c23)CC1` [Compound I-206, (R)-2-hydroxy-N-(cis-4-((5-(4-phenoxybenzoyl)-7H-pyrrolo[2,3-d]pyrimidin-4-yl)amino)cyclohexyl)propanamide], the pIC50 is 8.74.

As for `O=C(c1ccc(Oc2ccccc2)cc1Cl)c1c[nH]c2ncnc(N[C@H]3C[C@H](CO)C3)c12` [Compound I-207, (2-chloro-4-phenoxyphenyl)(4-((trans-3-(hydroxymethyl)cyclobutyl)amino)-7H-pyrrolo[2,3-d]pyrimidin-5-yl)methanone], the pIC50 was 8.39.

With `C[C@H](O)C(=O)N[C@@H](C)[C@@H]1CC[C@@H](Nc2ncnc3[nH]cc(C(=O)c4ccc(Oc5ccccc5)cc4Cl)c23)CO1` [Compound I-208, (S)—N—((S)-1-((2S,5R)-5-((5-(2-chloro-4-phenoxybenzoyl)-7H-pyrrolo[2,3-d]pyrimidin-4-yl)amino)tetrahydro-2H-pyran-2-yl)ethyl)-2-hydroxypropanamide], the negative-log IC50 (pIC50) was 8.51.

In the case of `C[C@H](O)C(=O)N[C@@H](C)[C@@H]1CC[C@@H](Nc2ncnc3[nH]cc(C(=O)c4ccc(Oc5ccccc5)cc4)c23)CO1` [Compound I-209, (S)-2-hydroxy-N-((S)-1-((2S,5R)-5-((5-(4-phenoxybenzoyl)-7H-pyrrolo[2,3-d]pyrimidin-4-yl)amino)tetrahydro-2H-pyran-2-yl)ethyl)propanamide], the pIC50 is 8.40.

`C[C@H](O)C(=O)NC[C@@H]1CC[C@@H](Nc2ncnc3[nH]cc(C(=O)c4ccc(Oc5ccccc5)cc4Cl)c23)CO1` [Compound I-210, (S)—N-(((2S,5R)-5-((5-(2-chloro-4-phenoxybenzoyl)-7H-pyrrolo[2,3-d]pyrimidin-4-yl)amino)tetrahydro-2H-pyran-2-yl)methyl)-2-hydroxypropanamide]: the pIC50 was 8.72.

For the compound `C[C@H](O)C(=O)NC[C@@H]1CC[C@@H](Nc2ncnc3[nH]cc(C(=O)c4ccc(Oc5ccccc5)cc4)c23)CO1` [Compound I-211, (S)-2-hydroxy-N-(((2S,5R)-5-((5-(4-phenoxybenzoyl)-7H-pyrrolo[2,3-d]pyrimidin-4-yl)amino)tetrahydro-2H-pyran-2-yl)methyl)propanamide], the pIC50 was 8.54.

On to `C[C@H](NC(=O)[C@@H](C)O)[C@@H]1CC[C@@H](Nc2ncnc3[nH]cc(C(=O)c4ccc(Oc5ccccc5)cc4Cl)c23)CO1` [Compound I-213, (R)—N—((S)-1-((2S,5R)-5-((5-(2-chloro-4-phenoxybenzoyl)-7H-pyrrolo[2,3-d]pyrimidin-4-yl)amino)tetrahydro-2H-pyran-2-yl)ethyl)-2-hydroxypropanamide], for which the pIC50 is 8.60.

Regarding `C[C@H](NC(=O)[C@@H](C)O)[C@@H]1CC[C@@H](Nc2ncnc3[nH]cc(C(=O)c4ccc(Oc5ccccc5)cc4)c23)CO1` [Compound I-215, (R)-2-hydroxy-N-((S)-1-((2S,5R)-5-((5-(4-phenoxybenzoyl)-7H-pyrrolo[2,3-d]pyrimidin-4-yl)amino)tetrahydro-2H-pyran-2-yl)ethyl)propanamide], the pIC50 is 8.41.

Turning to `C[C@@H](O)C(=O)NC[C@@H]1CC[C@@H](Nc2ncnc3[nH]cc(C(=O)c4ccc(Oc5ccccc5)cc4Cl)c23)CO1` [Compound I-216, (R)—N-(((2S,5R)-5-((5-(2-chloro-4-phenoxybenzoyl)-7H-pyrrolo[2,3-d]pyrimidin-4-yl)amino)tetrahydro-2H-pyran-2-yl)methyl)-2-hydroxypropanamide], the negative logarithm of the IC50 (pIC50) is 8.72.

Take `C[C@@H](O)C(=O)NC[C@@H]1CC[C@@H](Nc2ncnc3[nH]cc(C(=O)c4ccc(Oc5ccccc5)cc4)c23)CO1` [Compound I-217, (R)-2-hydroxy-N-(((2S,5R)-5-((5-(4-phenoxybenzoyl)-7H-pyrrolo[2,3-d]pyrimidin-4-yl)amino)tetrahydro-2H-pyran-2-yl)methyl)propanamide]: the negative-log IC50 (pIC50) was 8.49.
